Results on 39 compounds are retold here after patent US20250320184A1 (SIRONAX LTD., priority 2022, published 2025).

In this experiment the target is T1, SARM1 (50-724) (Homo sapiens, UniProt Q6SZW1).
T1 sequence (Q6SZW1 50-724): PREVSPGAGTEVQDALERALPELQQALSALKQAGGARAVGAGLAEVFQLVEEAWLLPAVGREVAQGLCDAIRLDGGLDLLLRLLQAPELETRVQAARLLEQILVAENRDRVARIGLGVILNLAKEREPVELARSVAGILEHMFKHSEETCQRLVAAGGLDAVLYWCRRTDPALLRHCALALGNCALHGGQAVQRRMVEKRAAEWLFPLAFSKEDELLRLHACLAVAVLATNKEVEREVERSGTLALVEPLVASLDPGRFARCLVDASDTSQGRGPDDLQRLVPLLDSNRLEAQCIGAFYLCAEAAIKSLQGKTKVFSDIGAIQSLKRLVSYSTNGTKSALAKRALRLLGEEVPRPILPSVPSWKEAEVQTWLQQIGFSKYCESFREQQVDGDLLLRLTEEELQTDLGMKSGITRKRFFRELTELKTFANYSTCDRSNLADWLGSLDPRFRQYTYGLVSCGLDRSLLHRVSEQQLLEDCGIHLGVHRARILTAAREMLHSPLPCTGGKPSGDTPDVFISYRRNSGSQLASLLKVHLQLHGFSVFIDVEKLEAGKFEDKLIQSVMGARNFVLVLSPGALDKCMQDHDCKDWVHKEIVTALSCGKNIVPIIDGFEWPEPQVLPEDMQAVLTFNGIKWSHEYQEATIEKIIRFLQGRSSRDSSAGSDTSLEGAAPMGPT
In words: biochemical.

Each structure is given as a SMILES string.

Description: An enzymatic assay was performed in a 384-well plate using Dulbecco's phosphate-buffered saline (PBS) as the reaction buffer. […] The reaction was initiated by adding a mixture of 200 μM nicotinamide mononucleotide (NMN) as activator and 100 μM NAD^+ as substrate. After 1 h of incubation at room temperature, the reaction was terminated with 10 times volume of 70% acetonitrile, then centrifuged at 3800 rpm for 10 min.

Usually IC50 stands for the concentration that inhibits the measured activity by half. A high value points to weaker potency in that assay. In turn, `Cc1nc(C(C)Nc2ccc3cc[nH]c(=O)c3c2)sc1Cl` (racemic) [Compound 207, 7-((1-(5-chloro-4-methylthiazol-2-yl)ethyl)amino)isoquinolin-1(2H)-one] had a 50% inhibitory concentration (IC50) of less than 100 nM.

For `O=C1NC(CO)CCc2ccc(NS(=O)(=O)c3cccc(Cl)c3Cl)cc21` (racemic) [Compound 304A, 2,3-dichloro-N-(3-(hydroxymethyl)-1-oxo-2,3,4,5-tetrahydro-1H-benzo[c]azepin-8-yl)benzenesulfonamide], the IC50 is less than 100 nM.

In turn, `CC(Nc1cc(F)c2nc[nH]c(=O)c2c1)c1nsc(Cl)c1Cl` (racemic) [Compound 338, 6-((1-(4,5-dichloroisothiazol-3-yl)ethyl)amino)-8-fluoroquinazolin-4(3H)-one] displayed an IC50 of less than 100 nM.

`CC(C)c1c[nH]c(=O)c2cc(NS(=O)(=O)c3cccc(Cl)c3Cl)ccc12` [Compound 66, 2,3-dichloro-N-(4-isopropyl-1-oxo-1,2-dihydroisoquinolin-7-yl)benzenesulfonamide] yielded an IC50 of more than 1000 nM.

`C[C@H](Nc1ccc2ccnc(O)c2c1)c1cccc(Cl)c1` [Compound 92, (S)-7-((1-(3-chlorophenyl)ethyl)amino)isoquinolin-1-ol] showed an IC50 of 100 to 500 nM.

The compound `CC(Nc1cc(F)c2c(c1)C(=O)N(CC(N)=O)C2(C)C)c1nc(Cl)c(Cl)s1` (racemic) [Compound 328, 2-(5-((1-(4,5-dichlorothiazol-2-yl)ethyl)amino)-7-fluoro-1,1-dimethyl-3-oxoisoindolin-2-yl)acetamide] registered an IC50 of less than 100 nM.

For `CC(Nc1ccc2c(c1)NC(=O)C2(C)C)c1cncc(Cl)c1Cl` (racemic) [Compound 267, 6-((1-(4,5-dichloropyridin-3-yl)ethyl)amino)-3,3-dimethylindolin-2-one], the IC50 was less than 100 nM.

As to `CC(Nc1ccc2c(c1)C(=O)NCC2)c1cccc(Cl)c1Cl` (single isomer, unassigned) [Example 111], the IC50 was less than 100 nM.

In turn, `Cc1c(Br)cccc1S(=O)(=O)Nc1ccc2c(c1)C(=O)NCCC2` [Compound 40, 3-bromo-2-methyl-N-(1-oxo-2,3,4,5-tetrahydro-1H-benzo[c]azepin-8-yl)benzenesulfonamide] showed a 50% inhibitory concentration (IC50) of less than 100 nM.

As for `O=c1[nH]cnc2ccc(NS(=O)(=O)c3cccc(Cl)c3Cl)cc12` [Compound 23, 2,3-dichloro-N-(4-oxo-3,4-dihydroquinazolin-6-yl)benzenesulfonamide], the IC50 fell in the range of 100 to 500 nM.

Regarding `NC(=O)Cc1ccc(NS(=O)(=O)c2cccc(Cl)c2Cl)cc1` [Compound 31, 2-(4-((2,3-dichlorophenyl)sulfonamido)phenyl)acetamide], the IC50 was in the range of 100 to 500 nM.

`Cc1cc(F)cc(C(C#N)Nc2ccc3c(c2)C(=O)NCC3)c1` (stereo not drawn) [Example 173, 2-(3-fluoro-5-methylphenyl)-2-((1-oxo-1,2,3,4-tetrahydroisoquinolin-7-yl)amino)acetonitrile] yielded a half-inhibitory concentration (IC50) of more than 1000 nM.

`CC(Nc1cc(F)c2ncn(CC(N)=O)c(=O)c2c1)c1nc(Cl)c(Cl)s1` (single isomer, unassigned) [Compound 323]: the IC50 is less than 100 nM.

`Cc1ccccc1S(=O)(=O)Nc1ccc2c(c1)C(=O)NCC2` [Compound 9, 2-methyl-N-(1-oxo-1,2,3,4-tetrahydroisoquinolin-7-yl)benzenesulfonamide] gave an IC50 of more than 1000 nM.

For the compound `CC(Nc1cc(F)c2c(c1)C(=O)NC2(C)C)c1nc(Cl)c(Cl)s1` (racemic) [Compound 318, 6-((1-(4,5-dichlorothiazol-2-yl)ethyl)amino)-4-fluoro-3,3-dimethylisoindolin-1-one], the IC50 was less than 100 nM.

On to `CC(Nc1ccc2ncn(C)c(=O)c2c1)c1cccc(Cl)c1Cl` (racemic) [Example 133, 6-((1-(2,3-dichlorophenyl)ethyl)amino)-3-methylquinazolin-4(3H)-one], for which the concentration for half-maximal inhibition (IC50) is 100 to 500 nM.

With `CC(Nc1ccc2cc[nH]c(=O)c2c1)c1ccnc(Cl)c1Cl` (racemic) [Example 131, 7-((1-(2,3-dichloropyridin-4-yl)ethyl)amino)isoquinolin-1(2H)-one], the IC50 lay within 100 to 500 nM.

Regarding `CCC(C(N)=O)c1ccc(NS(=O)(=O)c2cccc(Cl)c2Cl)cc1` (single isomer, unassigned) [Compound 270A], the IC50 is 100 to 500 nM.

Turning to `Cc1ccc2ccc(NS(=O)(=O)c3cccc(Cl)c3Cl)cc2n1` [Compound 71, 2,3-dichloro-N-(2-methylquinolin-7-yl)benzenesulfonamide], the IC50 was 100 to 500 nM.

With `CC(Nc1ccc2c(c1)C(=O)NCN2)c1ccc(F)c(Cl)c1Cl` (racemic) [Example 157, 6-((1-(2,3-dichloro-4-fluorophenyl)ethyl)amino)-2,3-dihydroquinazolin-4(1H)-one], the IC50 was 100 to 500 nM.

For the compound `Cc1n[nH]c(=O)c2cc(N[C@H](C)c3c(Cl)ccc(F)c3Cl)ccc12` (single isomer, unassigned) [Example 237A], the IC50 fell in the range of 500 to 1000 nM.

Compound `CC1(C)CNc2cc(NS(=O)(=O)c3cccc(Cl)c3Cl)ccc21` [Compound 219, 2,3-dichloro-N-(3,3-dimethylindolin-6-yl)benzenesulfonamide] returned an IC50 of less than 100 nM.

`CC(Nc1cc(F)c2ncn(-c3ccn[nH]3)c(=O)c2c1)c1nc(Cl)c(Cl)s1` (single isomer, unassigned) [Example 356] returned an IC50 of less than 100 nM.

Consider `CC1(C)C(=O)N(CC2CNC(=O)CO2)c2cc(NS(=O)(=O)c3cccc(Cl)c3Cl)ccc21` (stereo not drawn) [Compound 333, 2,3-dichloro-N-(3,3-dimethyl-2-oxo-1-((5-oxomorpholin-2-yl)methyl)indolin-6-yl)benzenesulfonamide], for which the IC50 is less than 100 nM.

Compound `Cc1c(Cl)cccc1S(=O)(=O)Nc1ccc2c(c1)C(=O)NCCC2` [Compound 39, 3-chloro-2-methyl-N-(1-oxo-2,3,4,5-tetrahydro-1H-benzo[c]azepin-8-yl)benzenesulfonamide] gave an IC50 of less than 100 nM.

For `O=c1[nH]cnc2ccc(NS(=O)(=O)c3c(Cl)ccc(Cl)c3Cl)cc12` [Compound 82, 2,3,6-trichloro-N-(4-oxo-3H-quinazolin-6-yl)benzenesulfonamide], the IC50 was less than 100 nM.

`O=C1NCCc2ccc(NS(=O)(=O)c3cccc(F)c3Cl)cc21` [Compound 53, 2-chloro-3-fluoro-N-(1-oxo-1,2,3,4-tetrahydroisoquinolin-7-yl)benzenesulfonamide] showed an IC50 of 100 to 500 nM.

For the compound `O=C1NCCc2ccc(NS(=O)(=O)c3cc(F)cc(Br)c3)cc21` [Compound 12, 3-bromo-5-fluoro-N-(1-oxo-1,2,3,4-tetrahydroisoquinolin-7-yl)benzenesulfonamide], the IC50 was more than 1000 nM.

`CC1(C)CNC(=O)c2cc(NS(=O)(=O)c3cccc(Cl)c3Cl)ccc21` [Compound 265, 2,3-dichloro-N-(4,4-dimethyl-1-oxo-1,2,3,4-tetrahydroisoquinolin-7-yl)benzenesulfonamide] showed an IC50 of less than 100 nM.

As for `Cc1cc(F)cc(C(Nc2ccc3c(c2)C(=O)NCC3)c2cccnc2)c1` (stereo not drawn) [Compound 178], the IC50 was more than 1000 nM.

`Cc1cccc(C(C)Nc2ccc3c(c2)C(=O)NCC3)c1F` (racemic) [Example 99, 7-((1-(2-fluoro-3-methylphenyl)ethyl)amino)-3,4-dihydroisoquinolin-1(2H)-one] yielded an IC50 of more than 1000 nM.

The compound `CC1(C)CN(C(N)=O)c2cc(NS(=O)(=O)c3cccc(Cl)c3Cl)ccc21` [Compound 242, 6-((2,3-dichlorophenyl)sulfonamido)-3,3-dimethylindoline-1-carboxamide] displayed a half-maximal inhibitory concentration (IC50) of less than 100 nM.

Consider `Cc1ccc(C(C)Nc2ccc3c(c2)C(=O)NCC3)cc1F` (racemic) [Example 123, 7-((1-(3-fluoro-4-methylphenyl)ethyl)amino)-3,4-dihydroisoquinolin-1(2H)-one], for which the IC50 was more than 1000 nM.

Compound `CC(Nc1ccc2ccn(CC3CC3)c(=O)c2c1)c1cccc(Cl)c1Cl` (racemic) [Compound 186, 2-(cyclopropylmethyl)-7-((1-(2,3-dichlorophenyl)ethyl)amino)isoquinolin-1(2H)-one] displayed an IC50 of 100 to 500 nM.

As to `CC(Nc1ccc2cc[nH]c(=O)c2c1)c1nn(C2CCC2)c(Cl)c1Cl` (stereo not drawn) [Compound 322, 7-((1-(4,5-dichloro-1-cyclobutyl-1H-pyrazol-3-yl)ethyl)amino)isoquinolin-1(2H)-one], the IC50 is less than 100 nM.

For the compound `CC1(C)C(=O)Nc2cc(NS(=O)(=O)c3cccc(Cl)c3Cl)ccc21` [Compound 204, 2,3-dichloro-N-(3,3-dimethyl-2-oxo-indolin-6-yl)benzenesulfonamide], the IC50 was less than 100 nM.

`Cc1n[nH]c2cc(NS(=O)(=O)c3cccc(Cl)c3Cl)cc(F)c12` [Compound 73, 2,3-dichloro-N-(4-fluoro-3-methyl-1H-indazol-6-yl)benzenesulfonamide] registered an IC50 of less than 100 nM.

Regarding `CC(Nc1ccc2c(c1)C(=O)NCC2)c1ccc(Cl)c(F)c1` (racemic) [Example 96, 7-((1-(4-chloro-3-fluorophenyl)ethyl)amino)-3,4-dihydroisoquinolin-1(2H)-one], the IC50 is more than 1000 nM.

With `CCC(Nc1ccc2c(c1)C(=O)NCC2)c1cc(C)cc(F)c1` (racemic) [Example 109, 7-((1-(3-fluoro-5-methylphenyl)propyl)amino)-3,4-dihydroisoquinolin-1(2H)-one], the IC50 was in the range of 100 to 500 nM.
